Measured values published in patent publication US20100152434A1, “Protein Kinase-binding Nucleosides and Associated Methods” (priority 2007, published 2010).
Read-outs that look alike come from different tables or passages of the source.

Tests used:
[1] = test system: CCRF-CEM
[2] = test system: EKVX
[3] = test system: HOP-62; conditions: HOP-52
[4] = test system: NCI-H460
[5] = test system: SF-539
[6] = test system: LOX IMVI
[7] = test system: M14
[8] = test system: IGROV1
[9] = test system: OVCAR-4
[10] = test system: 788-0; conditions: 786-0
[11] = test system: ACHN
[12] = test system: RXF 393; conditions: RXF 393
[13] = test system: DU-145
[14] = test system: MCF7
[15] = test system: RPMI-8226; assay: cells; conditions: Homo sapiens, RPMI-8226
[16] = test system: NCI-H522; assay: cells; conditions: Homo sapiens, NCI-H522
[17] = test system: COLO 205; assay: cells; conditions: Homo sapiens, COLO 205
[18] = test system: HCT-116; assay: cells; conditions: Homo sapiens, HCT-116
[19] = test system: KM12; assay: cells; conditions: Homo sapiens, KM12
[20] = test system: OVCAR-4; assay: cells; conditions: Homo sapiens, OVCAR-4
[21] = test system: OVCAR-5; assay: cells; conditions: Homo sapiens, OVCAR-5
[22] = test system: SK-OV-3; assay: cells; conditions: Homo sapiens, SK-OV-3
[23] = test system: A498; assay: cells; conditions: Homo sapiens, A498
[24] = test system: ACHN; assay: cells; conditions: Homo sapiens
[25] = test system: CAKI-1; assay: cells; conditions: Homo sapiens, CAKI-1
[26] = test system: T-47D; assay: cells; conditions: Homo sapiens, T47D
[27] = Log10 Concentration −4.0, Molar
[28] = Log10 Concentration −5.0, Molar
[29] = Log10 Concentration −6.0, Molar
[30] = Log10 Concentration −7.0, Molar
[31] = Log10 Concentration −8.0, Molar

CNC(=O)NC[C@H]1O[C@@H](n2cnc3c(NC(=O)Nc4ccccc4)ncnc32)C(O[Si](C)(C)C(C)(C)C)[C@H]1O[Si](C)(C)C(C)(C)C (stereo partly drawn) [Compound 25, 2′,3′-Bis-O-(tert-butyldimethylsilyl)-5-deoxy-5′-[(N-methylcarbamoyl)amino]-N^6-(N-phenylcarbamoyl)adenosine]
TGI [1]: >1.00E−4 Molar | Percent Growth [1, 27]: 4% | Percent Growth [1, 28]: 9% | Percent Growth [1, 29]: 101% | Percent Growth [1, 30]: 109% | Percent Growth [1, 31]: 104% | TGI [2]: 3.06E−5 Molar | Percent Growth [2, 27]: −9% | Percent Growth [2, 28]: 9% | Percent Growth [2, 29]: 104% | Percent Growth [2, 30]: 111% | Percent Growth [2, 31]: 106% | TGI [3]: 1.71E−5 Molar | Percent Growth ([3]; Log10 Concentration −4.0 Molar): −55% | Percent Growth ([3]; Log10 Concentration −5.0 Molar): 25% | Percent Growth ([3]; Log10 Concentration −6.0 Molar): 105% | Percent Growth ([3]; Log10 Concentration −7.0 Molar): 108% | Percent Growth ([3]; Log10 Concentration −8.0 Molar): 102% | TGI [4]: 3.49E−6 Molar | Percent Growth [4, 27]: −75% | Percent Growth [4, 28]: −74% | Percent Growth [4, 29]: 88% | Percent Growth [4, 30]: 93% | Percent Growth [4, 31]: 104% | TGI [5]: 1.30E−5 Molar | Percent Growth [5, 27]: −51% | Percent Growth [5, 28]: 7% | Percent Growth [5, 29]: 91% | Percent Growth [5, 30]: 100% | Percent Growth [5, 31]: 100% | TGI [6]: 3.36E−6 Molar | Percent Growth [6, 27]: −77% | Percent Growth [6, 28]: −89% | Percent Growth [6, 29]: 98% | Percent Growth [6, 30]: 101% | Percent Growth [6, 31]: 102% | TGI [7]: 1.85E−5 Molar | Percent Growth [7, 27]: −52% | Percent Growth [7, 28]: 19% | Percent Growth [7, 29]: 105% | Percent Growth [7, 30]: 107% | Percent Growth [7, 31]: 101% | TGI [8]: 7.76E−6 Molar | Percent Growth [8, 27]: −39% | Percent Growth [8, 28]: −12% | Percent Growth [8, 29]: 98% | Percent Growth [8, 30]: 99% | Percent Growth [8, 31]: 100% | TGI [9]: 4.39E−5 Molar | Percent Growth [9, 27]: −4% | Percent Growth [9, 28]: 7% | Percent Growth [9, 29]: 100% | Percent Growth [9, 30]: 106% | Percent Growth [9, 31]: 106% | TGI [10]: 3.71E−6 Molar | Percent Growth ([10]; Log10 Concentration −4.0 Molar): −80% | Percent Growth ([10]; Log10 Concentration −5.0 Molar): −83% | Percent Growth ([10]; Log10 Concentration −6.0 Molar): 110% | Percent Growth ([10]; Log10 Concentration −7.0 Molar): 113% | Percent Growth ([10]; Log10 Concentration −8.0 Molar): 103% | TGI [11]: >1.00E−4 Molar | Percent Growth [11, 27]: 2% | Percent Growth [11, 28]: 10% | Percent Growth [11, 29]: 105% | Percent Growth [11, 30]: 108% | Percent Growth [11, 31]: 107% | TGI [12]: 4.01E−6 Molar | Percent Growth [12, 27]: −77% | Percent Growth [12, 28]: −73% | Percent Growth [12, 29]: 111% | Percent Growth [12, 30]: 73% | Percent Growth [12, 31]: 96% | TGI [13]: 5.71E−6 Molar | Percent Growth [13, 27]: −89% | Percent Growth [13, 28]: −35% | Percent Growth [13, 29]: 109% | Percent Growth [13, 30]: 107% | Percent Growth [13, 31]: 103% | TGI [14]: 1.93E−5 Molar | Percent Growth [14, 27]: −15% | Percent Growth [14, 28]: 5% | Percent Growth [14, 29]: 83% | Percent Growth [14, 30]: 96% | Percent Growth [14, 31]: 99% | GI50 [15]: 3.27 µM | IC50 [15]: > 100 µM | GI50 [16]: 2.39 µM | IC50 [16]: > 100 µM | GI50 [17]: 1.59 µM | IC50 [17]: 5.98 µM | GI50 [18]: 2.11 µM | IC50 [18]: 8.8 µM | GI50 [19]: 2.13 µM | IC50 [19]: 8.05 µM | GI50 [20]: 3.44 µM | IC50 [20]: > 100 µM | GI50 [21]: 5.24 µM | IC50 [21]: > 100 µM | GI50 [22]: 5.88 µM | IC50 [22]: > 100 µM | GI50 [23]: 2.03 µM | IC50 [23]: 1.95 µM | GI50 [24]: 3.83 µM | IC50 [24]: > 100 µM | GI50 [25]: 2.7 µM | IC50 [25]: > 100 µM | GI50 [26]: 2.87 µM | IC50 [26]: > 100 µM
